# Laboratory results as given in ChEMBL document CHEMBL1201862, “PubChem BioAssay data set” (2004).
#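 Five concentrations, 48 hours, 96-well plates. Here, GI50 denotes the concentration required for 50% inhibition of growth.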 Calls of active or inactive are those of the source. Cut-off read from the data, not from the text of the source: active = GI50 up to about 1.1 µM and inactive = higher.
# Tests used:
# Test in all cases: inhibition of tumour cell growth, NCI panel, 48 h
# SK-MEL-5 = system: SK-MEL-5
# COLO 205 = system: COLO 205
# CCRF-CEM = system: CCRF-CEM
# ACHN = system: ACHN
# K562 = system: K562
# MOLT-4 = system: MOLT-4
# SK-OV-3 = system: SK-OV-3
# UACC-257 = system: UACC-257
# NCI-H226 = system: NCI-H226
# SF-295 = system: SF-295
# HOP-92 = system: HOP-92
# Malme-3M = system: Malme-3M
# OVCAR-4 = system: OVCAR-4
# BT-549 = system: BT-549
# NCI-H460 = system: NCI-H460
# U-251 = system: U-251
# NCI/ADR-RES = system: NCI/ADR-RES
# UACC-62 = system: UACC-62
# PC-3 = system: PC-3
# HT-29 = system: HT-29
# MDA-MB-435 = system: MDA-MB-435
# OVCAR-5 = system: OVCAR-5
# HL-60 = system: HL-60
# SNB-19 = system: SNB-19
# OVCAR-8 = system: OVCAR-8
# KM12 = system: KM12
# MDA-N = system: MDA-N
# Hs-578T = system: Hs-578T
# M14 = system: M14
# HOP-62 = system: HOP-62
# SF-268 = system: SF-268
# MCF7 = system: MCF7
# UO-31 = system: UO-31
# HCT-116 = system: HCT-116
# HCT-15 = system: HCT-15
# A498 = system: A498
# HCC 2998 = system: HCC 2998
# RXF 393 = system: RXF 393
# MDA-MB-231 = system: MDA-MB-231
# SN12C = system: SN12C
# EKVX = system: EKVX
# SK-MEL-2 = system: SK-MEL-2
# A549 = system: A549
# T47D = system: T47D
# NCI-H522 = system: NCI-H522
# SR = system: SR
# SW-620 = system: SW-620
# 786-0 = system: 786-0
# SK-MEL-28 = system: SK-MEL-28
# LOX IMVI = system: LOX IMVI
# DU-145 = system: DU-145
# CAKI-1 = system: CAKI-1
# OVCAR-3 = system: OVCAR-3
# TK-10 = system: TK-10
# IGROV-1 = system: IGROV-1
# NCI-H23 = system: NCI-H23
# RPMI-8226 = system: RPMI-8226
# SF-539 = system: SF-539
smiles,measurement,setting,value
Oc1cccc(-c2cn3cc(C(F)(F)F)ccc3n2)c1,GI50,SK-MEL-5,22.5 µM (inactive)
same,GI50,COLO 205,39.2 µM (inactive)
same,GI50,CCRF-CEM,24.1 µM (inactive)
same,GI50,ACHN,39.9 µM (inactive)
same,GI50,K562,30.5 µM (inactive)
same,GI50,MOLT-4,17.1 µM (inactive)
same,GI50,SK-OV-3,33.4 µM (inactive)
same,GI50,UACC-257,22.9 µM (inactive)
same,GI50,NCI-H226,46.9 µM (inactive)
same,GI50,SF-295,24.5 µM (inactive)
same,GI50,HOP-92,55.2 µM (inactive)
same,GI50,Malme-3M,27.9 µM (inactive)
same,GI50,OVCAR-4,22.1 µM (inactive)
same,GI50,BT-549,37.2 µM (inactive)
same,GI50,NCI-H460,26.1 µM (inactive)
same,GI50,U-251,50.6 µM (inactive)
same,GI50,NCI/ADR-RES,25.9 µM (inactive)
same,GI50,UACC-62,30.7 µM (inactive)
same,GI50,PC-3,32.2 µM (inactive)
same,GI50,HT-29,24.1 µM (inactive)
same,GI50,MDA-MB-435,32 µM (inactive)
same,GI50,OVCAR-5,37.2 µM (inactive)
same,GI50,HL-60,32.6 µM (inactive)
same,GI50,SNB-19,70.1 µM (inactive)
same,GI50,OVCAR-8,27.8 µM (inactive)
same,GI50,KM12,28.6 µM (inactive)
same,GI50,MDA-N,35.7 µM (inactive)
same,GI50,Hs-578T,74.6 µM (inactive)
same,GI50,M14,39.3 µM (inactive)
same,GI50,HOP-62,48.8 µM (inactive)
same,GI50,SF-268,38.8 µM (inactive)
same,GI50,MCF7,15.4 µM (inactive)
same,GI50,UO-31,0.338 µM (active)
same,GI50,HCT-116,39.9 µM (inactive)
same,GI50,HCT-15,29.2 µM
same,GI50,A498,37.5 µM (inactive)
same,GI50,HCC 2998,22.6 µM (inactive)
same,GI50,RXF 393,13.8 µM (inactive)
same,GI50,MDA-MB-231,43.7 µM (inactive)
same,GI50,SN12C,47.9 µM (inactive)
same,GI50,EKVX,17.5 µM (inactive)
same,GI50,SK-MEL-2,39.5 µM (inactive)
same,GI50,A549,28.6 µM (inactive)
same,GI50,T47D,2.39 µM (inactive)
same,GI50,NCI-H522,13.5 µM (inactive)
same,GI50,SR,31.6 µM (inactive)
same,GI50,SW-620,67.8 µM (inactive)
same,GI50,786-0,54.6 µM (inactive)
same,GI50,SK-MEL-28,61.9 µM (inactive)
same,GI50,LOX IMVI,32.6 µM (inactive)
same,GI50,DU-145,18.6 µM (inactive)
same,GI50,CAKI-1,47.9 µM (inactive)
same,GI50,OVCAR-3,19.5 µM (inactive)
same,GI50,TK-10,22.5 µM (inactive)
same,GI50,IGROV-1,20.4 µM (inactive)
same,GI50,NCI-H23,42.7 µM (inactive)
COC(=O)c1cc2c(cc1Cl)Sc1nnc(Nc3ccc(C)cc3)n1S2(=O)=O,GI50,SK-MEL-5,13.8 µM (inactive)
same,GI50,COLO 205,4.84 µM (inactive)
same,GI50,CCRF-CEM,3.78 µM (inactive)
same,GI50,ACHN,3.48 µM (inactive)
same,GI50,K562,5.13 µM (inactive)
same,GI50,RPMI-8226,2.17 µM (inactive)
same,GI50,MOLT-4,2.94 µM (inactive)
same,GI50,SK-OV-3,11.9 µM (inactive)
same,GI50,UACC-257,12.2 µM (inactive)
same,GI50,NCI-H226,12.1 µM (inactive)
same,GI50,SF-295,10.9 µM (inactive)
same,GI50,HOP-92,3.66 µM (inactive)
same,GI50,Malme-3M,11 µM (inactive)
same,GI50,OVCAR-4,2.76 µM (inactive)
same,GI50,BT-549,13.4 µM (inactive)
same,GI50,NCI-H460,11.6 µM (inactive)
same,GI50,U-251,3.87 µM (inactive)
same,GI50,NCI/ADR-RES,11.1 µM (inactive)
same,GI50,UACC-62,12.3 µM (inactive)
same,GI50,PC-3,4.85 µM (inactive)
same,GI50,HT-29,3.92 µM (inactive)
same,GI50,MDA-MB-435,7.19 µM (inactive)
same,GI50,OVCAR-5,17.1 µM (inactive)
same,GI50,HL-60,3.46 µM (inactive)
same,GI50,SNB-19,5.81 µM (inactive)
same,GI50,OVCAR-8,10.5 µM (inactive)
same,GI50,KM12,5.57 µM (inactive)
same,GI50,MDA-N,6.44 µM (inactive)
same,GI50,Hs-578T,4.9 µM (inactive)
same,GI50,M14,12.7 µM (inactive)
same,GI50,HOP-62,8.89 µM (inactive)
same,GI50,SF-268,3.6 µM (inactive)
same,GI50,MCF7,3.72 µM (inactive)
same,GI50,UO-31,10.5 µM (inactive)
same,GI50,HCT-116,8.93 µM (inactive)
same,GI50,HCT-15,3.97 µM
same,GI50,A498,15.2 µM (inactive)
same,GI50,HCC 2998,4.75 µM (inactive)
same,GI50,RXF 393,3.94 µM (inactive)
same,GI50,MDA-MB-231,10.6 µM (inactive)
same,GI50,SN12C,18.1 µM (inactive)
same,GI50,EKVX,12.9 µM (inactive)
same,GI50,SK-MEL-2,2.9 µM (inactive)
same,GI50,A549,15.4 µM (inactive)
same,GI50,T47D,1.75 µM (inactive)
same,GI50,NCI-H522,2.67 µM (inactive)
same,GI50,SR,2.12 µM (inactive)
same,GI50,786-0,7.69 µM (inactive)
same,GI50,SK-MEL-28,9.33 µM (inactive)
same,GI50,SF-539,1.17 µM (inactive)
same,GI50,DU-145,2.65 µM (inactive)
same,GI50,CAKI-1,10.4 µM (inactive)
same,GI50,OVCAR-3,2.19 µM (inactive)
same,GI50,TK-10,14.3 µM (inactive)
same,GI50,IGROV-1,2.15 µM (inactive)
same,GI50,NCI-H23,3.61 µM (inactive)
